In the experiment the test system is Human epidermal keratinocytes (HaCaT cells). As to the kind of experiment: "scrape" in vitro wound healing model (wound closure of a scraped confluent monolayer). In kind it is cell-based. The conditions noted are these: for wound width, day 1: day 1 (24 hours); for wound width, day 2: day 2 (48 hours). As for the experimental part: The “scrape” in vitro wound healing model has been previously presented in the literature (Li, F. et al., 2000, Exp Cell Res., 258(2): 245-253; Firth J. D. et al., 2004, J. Invest. Dermatol., 122(1): 222-231). In this model a scrape across a confluent monolayer of cells is used to simulate a wound and the effect of agents added to serum free media is tested on the rate of closure of the gap.
Human epidermal keratinocytes (HaCaT cells) were plated at a density of 1×10^5 cells/well into Nunc 6 well plates in Dulbecco's Modified Eagle Medium (DMEM) containing 10% fetal bovine serum (FBS) benzyl penicillin (100 IU/ml), streptomycin […] confluence (2 days) monolayers were “wounded” with a 1 ml pipette tip (0.5 mm width) by scraping the tip across the centre of the well. The wells were then washed 5 times with DMEM. One ml of either DMEM with 10% FBS, DMEM or DMEM with: 3, 6, 12 or 24 mgs/ml bovine fetuin A (Sigma), 6.25, 12.5, 25 or 50 μg/ml peptide TGF peptide antagonist (Corresponding to residues 41-65 of TGFβ-1-3:—Huang S. S. et al., 1997, Journal of Biological Chemistry, 272(43):27155-27159) and 2.1, 4.2, 8.4 and 16.8 mg/ml bovine thyroglobulin was added to each well (2 replicates per plate, 4 plates). These concentrations were calculated to have equivalent antagonistic effect on the binding of TGFβ-1 to its receptor for each of the compounds. All DMEM solutions used contained benzyl penicillin (100 IU/ml), streptomycin ([…]) and fungizone (250 mg/ml). A mark was placed on the base of each well at right angles to the “wound” and the wound was photographed at the intersection of the mark and wound with a Nikon EOS 300 digital camera fitted to a JenaMed (Ziess Jena) inverted microscope (50×). Images were taken at the same positions 24 and 48 hours after addition of the treatment media. Digital images were analysed with Image Pro (Media Cybernetics) image analysis software and an image of a Nikon stage micrometer was used for calibration of length measurements. Results were summarized as the wound width after 24 and 48 hours.

[1] abbreviates: 6.25 μg/ml TGF peptide antagonist in DMEM.
[2] abbreviates: 12.5 μg/ml TGF peptide antagonist in DMEM.
[3] abbreviates: 25 μg/ml TGF peptide antagonist in DMEM.
Setting [4] is: 50 μg/ml TGF peptide antagonist in DMEM.
The mark [5] stands for this setting: 2.1 mg/ml bovine thyroglobulin in DMEM.
[6] abbreviates: 4.2 mg/ml bovine thyroglobulin in DMEM.
Setting [7] is: 8.4 mg/ml bovine thyroglobulin in DMEM.
[8] abbreviates: 16.8 mg/ml bovine thyroglobulin in DMEM.

This is an account of results in patent publication US20090130070A1, “METHOD OF TREATMENT” (The University of Queensland, priority 2004, published 2009).

Regarding “TGFB-R inhibitor: peptide TGF peptide antagonist corresponding to residues 41-65 of TGFβ-1-3 (Huang S. S. et al., 1997) (ANFCLGPCPYIWSLDTQYSKVLALY; Transforming growth factor beta-1; UniProt P01137 319-343, looked up, fragment)”, the “wound width, day 0” value came to 0.6779 under setting [1], 0.6751 under setting [2], 0.6643 under setting [3] and 0.6371 under setting [4]. In addition, the “wound width, day 1” value is, setting by setting: under setting [1], 0.5473; under setting [2], 0.5515; under setting [3], 0.5341; under setting [4], 0.554. In addition, the “wound width, day 2” value was determined as 0.4866 under setting [1], 0.4839 under setting [2], 0.4688 under setting [3] and 0.498 under setting [4].
For “Thyroglobulin: bovine thyroglobulin, comparator that binds members of the TGF-β superfamily”, the “wound width, day 0” value runs as follows: under setting [5], 0.6587; under setting [6], 0.6428; under setting [7], 0.6669; under setting [8], 0.6152. For the same substance, the “wound width, day 1” value is, setting by setting: under setting [5], 0.413; under setting [6], 0.5772; under setting [7], 0.5742; under setting [8], 0.5981. In addition, the “wound width, day 2” value was found to be 0.4941 under setting [5], 0.5393 under setting [6], 0.5909 under setting [7] and 0.6132 under setting [8].
